The values below come from ChEMBL document CHEMBL1777680, “Part 1: N-alkylated glycines as potent α2δ ligands” (Bioorg Med Chem Lett, 2011).

Data set [1] in a line: Displacement of [3H]Gabapentin from alpha2delta calcium channel in pig brain tissue homogenates after 45 mins by scintillation counting. It counts as tissue-based, Sus scrofa.
Data set [2] in a line: Tmax in iv dosed rat. It counts as ADME, organism-based. As to conditions: in vivo.
Data set [3] can be described thus: Volume of distribution in iv dosed rat. It counts as ADME, organism-based. The settings on record: in vivo.
Another data set deals with Rattus norvegicus. Nature of the data set: Unbound clearance in iv dosed rat. It counts as ADME, organism-based. The settings on record: in vivo.
Data set [4] can be described thus: Half life in iv dosed rat. It counts as ADME, organism-based. The settings on record: in vivo.

Usually IC50 stands for the midpoint of a concentration-inhibition curve. One may read the Tmax as the time at which the peak concentration occurs. The Vd is the apparent volume that relates the amount in the body to the concentration in plasma or blood. What is called half-life is the time in which the quantity being followed falls by half. A low value points to fast loss.

SMILES strings stand for the structures.

For the compound `O=C(O)CNCCSc1ccc(Cl)cc1`, the IC50 in data set [1] was 195 nM.

For `O=C(O)CNCCOc1ccc(Cl)cc1`, in data set [1], the IC50 came to 6590 nM.

`O=C(O)CNCCSc1ccc(F)cc1`: the IC50 in data set [1] stood at 2500 nM.

For `O=C(O)CNCCSc1ccc(Br)cc1`, the IC50 in data set [1] was found to be 59 nM.

On to `O=C(O)CNCCSc1ccccc1`, for which the IC50 in data set [1] turned out to be 5400 nM.

Regarding `O=C(O)CNCCSc1ccc2ccccc2c1`, in data set [2], the Tmax stood at 15 min. The IC50 in data set [1] is 22 nM. The Vd in data set [3] turned out to be 0.6 L/kg. For the same compound, the CL free in the data set with Rattus norvegicus was 23 mL/min/kg. In addition, in data set [4], the half-life is 66 min.

As to `O=C(O)CNCCSc1cccc(Br)c1`, in data set [1], the IC50 is 428 nM.

`O=C(O)CNCCSc1ccc2ccncc2c1`: in data set [1], the IC50 stood at 83 nM.

As for `N#Cc1ccc(SCCNCC(=O)O)cc1`, in data set [1], the IC50 worked out at 680 nM.

`NCc1ccc(SCCNCC(=O)O)cc1`: in data set [1], the IC50 came to 900 nM.

For `C[C@@H](CNCC(=O)O)Oc1ccc(Br)cc1`, the IC50 in data set [1] turned out to be 441 nM.

`C[C@H](CNCC(=O)O)Oc1ccc(Br)cc1`: in data set [1], the IC50 amounted to 6670 nM.

As to `CC(CNCC(=O)O)Oc1ccc(Cl)cc1` (racemic), in data set [1], the IC50 was determined as 523 nM.

Regarding `CCC(CNCC(=O)O)Oc1ccc(Br)cc1` (racemic), in data set [1], the IC50 came to 214 nM.

As to `CCC(CNCC(=O)O)Oc1cccc(Cl)c1` (racemic), the IC50 in data set [1] amounted to 40 nM.
